Results published in PubChem BioAssay (NCI).
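In this assay, cells in 96-well plates receive the compound at five concentrations for 48 hours. Endpoints are linearly interpolated between the surrounding concentrations. Here, GI50 denotes the concentration required for 50% inhibition of growth. TGI denotes the concentration required for complete inhibition of growth.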

Columns and labels:
Assay in all cases: inhibition of tumour cell growth, NCI panel, 48 h
A549 NSCLC = tested on: A549 NSCLC
BT-549 breast = tested on: BT-549 breast
DU-145 prostate = tested on: DU-145 prostate
HCC-2998 colon = tested on: HCC-2998 colon
K-562 leukemia = tested on: K-562 leukemia
KM12 colon = tested on: KM12 colon
MALME-3M melanoma = tested on: MALME-3M melanoma
MDA-MB-435 = tested on: MDA-MB-435
NCI-H23 lung = tested on: NCI-H23 lung
SN12C renal = tested on: SN12C renal

Row | Structure (SMILES) | GI50 (A549 NSCLC) [µM] | TGI (A549 NSCLC) [µM] | GI50 (BT-549 breast) [µM] | TGI (BT-549 breast) [µM] | GI50 (DU-145 prostate) [µM] | TGI (DU-145 prostate) [µM] | GI50 (HCC-2998 colon) [µM] | TGI (HCC-2998 colon) [µM] | GI50 (K-562 leukemia) [µM] | TGI (K-562 leukemia) [µM] | GI50 (KM12 colon) [µM] | TGI (KM12 colon) [µM] | GI50 (MALME-3M melanoma) [µM] | TGI (MALME-3M melanoma) [µM] | GI50 (MDA-MB-435) [µM] | TGI (MDA-MB-435) [µM] | GI50 (NCI-H23 lung) [µM] | TGI (NCI-H23 lung) [µM] | GI50 (SN12C renal) [µM] | TGI (SN12C renal) [µM]
1 | CC(C)OP(=O)(O)c1ncc(-c2ccc(C(F)(F)F)cc2)c(NC2CCCCCC2)n1 | > 100 | > 100 | > 100 | > 100 | > 100 | > 100 | > 100 | > 100 | 55 | > 100 | 68.8 | > 100 | > 100 | > 100 | > 100 | > 100 | > 100 | > 100 | > 100 | > 100
2 | COc1ccc2c(c1)C(=O)c1c-2c(OCCN(C)C)nc2cc(OC)c(OC)cc12 | 4.2 | 21.5 | 26.5 | > 100 | 2.93 | 34.7 | 8.85 | 49.9 | 5.04 | 30.9 | 0.762 | 13.4 | 12.1 | 28.3 | 5.3 | > 100 | 9.32 | 22.9 | 2.72 | > 100
3 | C[C@@H]1CCc2ncc(F)cc2[C@H]2CCCN2c2ccn3ncc(c3n2)C(=O)N1 | 69.3 | > 100 | 69.8 | > 100 | 73.7 | > 100 | > 100 | > 100 | 29.8 | > 100 |  | > 100 | > 100 | > 100 | 83.1 | > 100 | > 100 | > 100 | 44.1 | > 100
4 | CC1(C)C2CCC13C(=O)C1OC3(C2)C2C(=O)c3c(ccc4c3ccc3ccccc34)C(=O)C12 (stereo not given) | > 60.1 | > 100 | > 80.3 | > 100 | > 100 | > 100 | > 100 | > 100 | 1.12 | 82.1 | 57.6 | > 100 | 25.2 | > 89.2 | > 62.2 | > 100 | > 48.4 | > 81.5 | > 73.3 | > 100
5 | CC(O)[C@H](NC(=O)N[C@@H](CC(N)=O)c1nc(N2CCNCC2)no1)C(=O)O (stereo not given in full) | > 100 | > 100 | > 100 | > 100 | > 100 | > 100 | > 100 | > 100 | > 100 | > 100 | > 100 | > 100 | > 100 | > 100 | > 100 | > 100 | > 100 | > 100 | > 100 | > 100
6 | COc1cc(/C=C2\SC(N3CCCCC3)=NC2=O)ccc1OCCCCCCOc1ccc(/C=C2\SC(N3CCCCC3)=NC2=O)cc1OC | 11.8 | 30.9 | 4.29 | 22.8 | 5.26 | 17.6 | 13.6 | 27 |  |  | 11.1 | 25 | 3.87 | 30 | 10.8 | 79.1 | 12.6 | 40.9 | 19 | > 100
7 | COc1cc(-c2nn(-c3cccc(NC(=O)CCNc4ccc(N5CCOCC5)cc4)c3)cc2-c2ccncc2)ccc1Cl | 1.46 | 25.1 | 3.41 | 31 | 4.04 | > 100 | 4.77 | > 100 |  |  | 2.44 | 20 | 2.31 | 6.93 | 2.41 | 7.28 | 2.68 | 20.6 | 3.19 | > 100
8 | COc1cc(-c2nn(-c3cccc(NC(=O)CCN4CCN(c5ccccc5)CC4)c3)cc2-c2ccncc2)ccc1Cl | 4.91 | > 100 | 3.17 | > 100 | 4.35 | > 100 | 3.56 | > 100 |  |  | 2.45 | 9.97 | 2.73 | 14.3 | 2.57 | 13 | 3.09 | > 100 | 3.72 | > 100
9 | Cc1ccc(C2CC(c3ccc(Nc4ccnc5cc(Cl)ccc45)cc3)=NN2C=O)cc1 (stereo not given) | 9.86 | > 100 | 5.64 | > 100 | > 100 | > 100 | 7.44 | > 100 |  |  | 6.64 | > 100 | > 100 | > 100 | 1.95 | > 100 | 6.93 | > 100 | 7.23 | > 100
10 | C=C1CC[C@H]2C(C)=CC[C@H]3C(=C)C(=O)O[C@@H]3[C@@H]12 |  | > 100 |  | > 100 |  | > 100 |  | > 100 |  | > 100 |  |  |  | > 100 |  | > 100 |  | > 100 |  | > 100
